Measurements from ChEMBL document CHEMBL4152300, “Discovery of the selective and efficacious inhibitors of FLT3 mutations” (Eur J Med Chem, 2018).

How the values were obtained:
[1] = target: T1, Receptor-type tyrosine-protein kinase FLT3 (Homo sapiens, UniProt P36888); assay: Inhibition of FLT3 in human MV4-11 cells assessed as reduction in STAT5 phosphorylation at Tyr694 residue after 4 hrs by Western blot analysis; type: cell-based
MV4-11 [2] = assay: Induction of apoptosis in human MV4-11 cells assessed as early apoptotic cells at 0.5 uM after 24 hrs by Annexin V-FITC/propidium iodide staining based flow cytometry (reference value: 0%); type: functional
K562 = assay: Growth inhibition of FLT3 null human K562 cells after 72 hrs by Cell-Titer Glo assay; type: functional, cell-based; conditions: K562, 72 h
[3] = target: Receptor-type tyrosine-protein kinase FLT3 (Homo sapiens, UniProt P36888, F691L/ITD); assay: Binding affinity to human FLT3 ITD/F691L double mutant expressed in bacterial expression system by Kinomescan method
[4] = Drug uptake in human liver microsomes up to 60 mins by LC-MS/MS analysis; type: ADME, microsome; conditions: 1 h
[5] = target: Receptor-type tyrosine-protein kinase FLT3 (Homo sapiens, UniProt P36888, ITD); assay: Inhibition of human FLT3 ITD-W51 mutant by Hotspot assay
[6] = target: T1, Receptor-type tyrosine-protein kinase FLT3; assay: Inhibition of human FLT3 F594_R595insREY mutant by Hotspot assay
[7] = target: T1, Receptor-type tyrosine-protein kinase FLT3; assay: Inhibition of human FLT3 R595_E596 mutant by Hotspot assay
[8] = Half life in human liver microsomes preincubated for 5 mins followed by NADPH addition by LC-MS/MS analysis; type: ADME, microsome
[9] = target: Mast/stem cell growth factor receptor Kit (Homo sapiens, UniProt P10721); assay: Inhibition of human KIT at 0.123 uM by Hotspot assay
MV4-11 [10] = assay: Induction of apoptosis in human MV4-11 cells assessed as live cells at 0.5 uM after 24 hrs by Annexin V-FITC/propidium iodide staining based flow cytometry (reference value: 100%); type: functional
[11] = target: T1, Receptor-type tyrosine-protein kinase FLT3; assay: Inhibition of FLT3 in human MV4-11 cells assessed as reduction in ERK1/2 phosphorylation at Thr202/Tyr204 residues after 4 hrs by Western blot analysis; type: cell-based
[12] = target: T2, Vascular endothelial growth factor receptor 2 (Homo sapiens, UniProt P35968); assay: Inhibition of human KDR by Hotspot assay
[13] = target: Cyclin-dependent kinase 6 (Homo sapiens, UniProt Q00534); assay: Inhibition of CDK6 (unknown origin) assessed as residual activity at 0.123 uM by Hotspot assay relative to control
MV4-11 [14] = assay: Induction of apoptosis in human MV4-11 cells after 24 hrs by Annexin V-FITC/propidium iodide staining based flow cytometry; type: functional, cell-based
MV4-11 [15] = assay: Induction of apoptosis in human MV4-11 cells assessed as live cells at 0.2 uM after 24 hrs by Annexin V-FITC/propidium iodide staining based flow cytometry (reference value: 100%); type: functional
[16] = target: Vascular endothelial growth factor receptor 3 (Homo sapiens, UniProt P35916); assay: Inhibition of human FLT4 by Hotspot assay
HL-60 = assay: Growth inhibition of human HL60 cells expressing low levels of FLT3 after 72 hrs by Cell-Titer Glo assay; type: functional, cell-based; conditions: HL-60, 72 h
[17] = target: Receptor-type tyrosine-protein kinase FLT3 (Homo sapiens, UniProt P36888, D835Y); assay: Inhibition of human FLT3 D835Y mutant by Hotspot assay
MV4-11 [18] = assay: Induction of apoptosis in human MV4-11 cells assessed as necrotic cells at 0.2 uM after 24 hrs by Annexin V-FITC/propidium iodide staining based flow cytometry (reference value: 0%); type: functional
[19] = target: T1, Receptor-type tyrosine-protein kinase FLT3; assay: Inhibition of human FLT3 Y591-V592 mutant by Hotspot assay
[20] = target: T2, Vascular endothelial growth factor receptor 2; assay: Inhibition of human KDR at 0.123 uM by Hotspot assay relative to control
[21] = target: T3, Receptor-type tyrosine-protein kinase FLT3 (Homo sapiens, UniProt P36888)
T3 sequence (P36888 whole entry): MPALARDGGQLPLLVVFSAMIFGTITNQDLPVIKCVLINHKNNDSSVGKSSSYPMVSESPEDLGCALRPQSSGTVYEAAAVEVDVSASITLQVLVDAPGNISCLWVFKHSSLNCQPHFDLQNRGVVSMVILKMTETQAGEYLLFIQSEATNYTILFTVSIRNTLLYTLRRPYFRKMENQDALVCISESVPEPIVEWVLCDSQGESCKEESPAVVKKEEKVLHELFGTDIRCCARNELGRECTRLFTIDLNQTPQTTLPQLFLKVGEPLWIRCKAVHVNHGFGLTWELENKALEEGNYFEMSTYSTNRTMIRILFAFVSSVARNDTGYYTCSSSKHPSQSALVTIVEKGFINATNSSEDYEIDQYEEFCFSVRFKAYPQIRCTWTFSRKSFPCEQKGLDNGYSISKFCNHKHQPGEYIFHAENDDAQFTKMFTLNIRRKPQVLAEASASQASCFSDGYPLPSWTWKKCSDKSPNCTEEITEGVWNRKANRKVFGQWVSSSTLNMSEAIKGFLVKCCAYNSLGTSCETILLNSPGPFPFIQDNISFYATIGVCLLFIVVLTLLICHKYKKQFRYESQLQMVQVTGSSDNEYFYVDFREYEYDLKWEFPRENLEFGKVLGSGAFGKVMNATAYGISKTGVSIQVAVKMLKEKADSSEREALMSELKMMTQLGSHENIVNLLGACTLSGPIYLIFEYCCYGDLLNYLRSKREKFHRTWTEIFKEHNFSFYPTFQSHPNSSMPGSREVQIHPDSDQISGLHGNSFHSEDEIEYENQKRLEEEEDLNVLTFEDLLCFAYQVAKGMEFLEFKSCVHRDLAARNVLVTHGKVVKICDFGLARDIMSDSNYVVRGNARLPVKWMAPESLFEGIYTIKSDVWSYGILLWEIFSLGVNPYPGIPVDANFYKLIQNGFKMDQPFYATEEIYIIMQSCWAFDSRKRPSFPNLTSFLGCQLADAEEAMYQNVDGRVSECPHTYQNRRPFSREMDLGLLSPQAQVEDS
Description: Inhibition of human FLT3 by Hotspot assay

MV4-11 [22] = assay: Induction of apoptosis in human MV4-11 cells assessed as late apoptotic cells at 0.5 uM after 24 hrs by Annexin V-FITC/propidium iodide staining based flow cytometry (reference value: 0%); type: functional
[23] = target: T4, Vascular endothelial growth factor receptor 1 (Homo sapiens, UniProt P17948); assay: Inhibition of human FLT1 at 0.123 uM by Hotspot assay relative to control
MV4-11 [24] = assay: Induction of apoptosis in human MV4-11 cells assessed as early apoptotic cells at 0.2 uM after 24 hrs by Annexin V-FITC/propidium iodide staining based flow cytometry (reference value: 0%); type: functional
MV4-11 [25] = assay: Growth inhibition of human MV4-11 cells harboring FLT3-ITD after 72 hrs by Cell-Titer Glo assay; type: functional, cell-based; conditions: MV4-11, 72 h
[26] = target: T4, Vascular endothelial growth factor receptor 1; assay: Inhibition of human FLT1 by Hotspot assay
[27] = Intrinsic clearance in human liver microsomes preincubated for 5 mins followed by NADPH addition by LC-MS/MS analysis; type: ADME, microsome; conditions: read-out: CLH
Homo sapiens = organism: Homo sapiens; assay: Selectivity ratio of IC50 for human FLT4 to IC50 for human FLT3

T2 sequence (P35968 whole entry): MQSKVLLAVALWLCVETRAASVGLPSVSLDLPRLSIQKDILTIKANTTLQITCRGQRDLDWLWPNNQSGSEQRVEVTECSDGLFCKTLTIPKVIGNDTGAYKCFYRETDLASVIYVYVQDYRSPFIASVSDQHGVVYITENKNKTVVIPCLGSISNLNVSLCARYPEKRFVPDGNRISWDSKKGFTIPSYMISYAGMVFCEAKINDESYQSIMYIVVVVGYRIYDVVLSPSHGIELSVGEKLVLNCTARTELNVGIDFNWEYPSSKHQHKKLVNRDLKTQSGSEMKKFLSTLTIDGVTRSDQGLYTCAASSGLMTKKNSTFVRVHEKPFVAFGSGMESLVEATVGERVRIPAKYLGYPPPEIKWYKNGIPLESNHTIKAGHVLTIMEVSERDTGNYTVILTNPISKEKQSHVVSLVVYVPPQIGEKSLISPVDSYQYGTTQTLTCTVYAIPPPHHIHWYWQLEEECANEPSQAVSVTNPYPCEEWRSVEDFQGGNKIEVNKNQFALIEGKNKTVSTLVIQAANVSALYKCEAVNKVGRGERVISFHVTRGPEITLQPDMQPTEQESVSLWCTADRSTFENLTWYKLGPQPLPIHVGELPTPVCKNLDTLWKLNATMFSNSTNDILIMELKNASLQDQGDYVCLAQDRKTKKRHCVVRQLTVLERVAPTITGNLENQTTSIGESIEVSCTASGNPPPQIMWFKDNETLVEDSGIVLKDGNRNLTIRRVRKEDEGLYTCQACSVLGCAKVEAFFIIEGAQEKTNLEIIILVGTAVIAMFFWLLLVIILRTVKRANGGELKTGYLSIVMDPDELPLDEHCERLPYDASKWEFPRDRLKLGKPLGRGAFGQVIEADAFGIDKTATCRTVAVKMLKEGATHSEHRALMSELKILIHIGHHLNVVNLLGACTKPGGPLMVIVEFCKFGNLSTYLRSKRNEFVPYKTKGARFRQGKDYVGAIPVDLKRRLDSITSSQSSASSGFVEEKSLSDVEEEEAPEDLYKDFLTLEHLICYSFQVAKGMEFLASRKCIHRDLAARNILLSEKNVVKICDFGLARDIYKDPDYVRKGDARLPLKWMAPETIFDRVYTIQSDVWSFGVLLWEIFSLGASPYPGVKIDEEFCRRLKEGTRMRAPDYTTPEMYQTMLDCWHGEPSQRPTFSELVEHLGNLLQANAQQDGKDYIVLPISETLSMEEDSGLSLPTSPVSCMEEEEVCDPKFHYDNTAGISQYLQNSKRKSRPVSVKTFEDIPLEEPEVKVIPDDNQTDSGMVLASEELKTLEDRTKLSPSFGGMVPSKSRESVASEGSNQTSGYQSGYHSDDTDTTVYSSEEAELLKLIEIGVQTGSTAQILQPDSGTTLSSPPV
T4 sequence (P17948 whole entry): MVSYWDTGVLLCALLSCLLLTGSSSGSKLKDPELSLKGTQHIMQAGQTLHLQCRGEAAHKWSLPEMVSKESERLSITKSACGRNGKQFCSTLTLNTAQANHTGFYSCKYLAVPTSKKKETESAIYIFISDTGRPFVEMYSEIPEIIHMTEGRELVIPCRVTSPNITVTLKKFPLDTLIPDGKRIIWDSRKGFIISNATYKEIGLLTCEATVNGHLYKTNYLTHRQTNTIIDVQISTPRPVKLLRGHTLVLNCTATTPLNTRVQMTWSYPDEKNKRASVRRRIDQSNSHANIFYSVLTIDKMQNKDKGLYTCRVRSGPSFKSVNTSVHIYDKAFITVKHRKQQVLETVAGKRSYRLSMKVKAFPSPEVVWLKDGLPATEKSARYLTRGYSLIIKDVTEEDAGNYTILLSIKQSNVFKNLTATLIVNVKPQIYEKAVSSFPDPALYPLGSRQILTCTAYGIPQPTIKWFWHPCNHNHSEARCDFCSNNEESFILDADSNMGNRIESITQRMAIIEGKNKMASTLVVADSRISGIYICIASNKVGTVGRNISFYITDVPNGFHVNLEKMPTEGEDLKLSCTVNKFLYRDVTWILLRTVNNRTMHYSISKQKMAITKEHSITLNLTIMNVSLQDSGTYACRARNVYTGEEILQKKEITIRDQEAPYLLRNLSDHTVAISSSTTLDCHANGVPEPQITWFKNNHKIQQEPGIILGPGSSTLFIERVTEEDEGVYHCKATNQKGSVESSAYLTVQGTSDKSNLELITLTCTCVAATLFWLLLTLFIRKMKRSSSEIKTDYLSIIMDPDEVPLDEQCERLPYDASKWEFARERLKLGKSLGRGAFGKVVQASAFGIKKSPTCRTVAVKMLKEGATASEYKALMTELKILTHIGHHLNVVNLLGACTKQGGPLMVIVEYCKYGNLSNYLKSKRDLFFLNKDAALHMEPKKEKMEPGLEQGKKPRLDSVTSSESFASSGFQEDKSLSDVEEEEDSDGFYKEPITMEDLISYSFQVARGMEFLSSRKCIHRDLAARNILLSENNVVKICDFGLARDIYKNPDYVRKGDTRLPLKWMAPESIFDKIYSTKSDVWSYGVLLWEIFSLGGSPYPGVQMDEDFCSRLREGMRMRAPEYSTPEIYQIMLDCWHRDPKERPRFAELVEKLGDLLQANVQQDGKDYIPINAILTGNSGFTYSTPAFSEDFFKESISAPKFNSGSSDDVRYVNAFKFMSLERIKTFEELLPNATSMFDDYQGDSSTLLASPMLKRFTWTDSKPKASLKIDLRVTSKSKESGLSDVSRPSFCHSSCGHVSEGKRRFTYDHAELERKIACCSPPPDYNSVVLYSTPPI
Chain of Mast/stem cell growth factor receptor Kit (P10721 whole entry): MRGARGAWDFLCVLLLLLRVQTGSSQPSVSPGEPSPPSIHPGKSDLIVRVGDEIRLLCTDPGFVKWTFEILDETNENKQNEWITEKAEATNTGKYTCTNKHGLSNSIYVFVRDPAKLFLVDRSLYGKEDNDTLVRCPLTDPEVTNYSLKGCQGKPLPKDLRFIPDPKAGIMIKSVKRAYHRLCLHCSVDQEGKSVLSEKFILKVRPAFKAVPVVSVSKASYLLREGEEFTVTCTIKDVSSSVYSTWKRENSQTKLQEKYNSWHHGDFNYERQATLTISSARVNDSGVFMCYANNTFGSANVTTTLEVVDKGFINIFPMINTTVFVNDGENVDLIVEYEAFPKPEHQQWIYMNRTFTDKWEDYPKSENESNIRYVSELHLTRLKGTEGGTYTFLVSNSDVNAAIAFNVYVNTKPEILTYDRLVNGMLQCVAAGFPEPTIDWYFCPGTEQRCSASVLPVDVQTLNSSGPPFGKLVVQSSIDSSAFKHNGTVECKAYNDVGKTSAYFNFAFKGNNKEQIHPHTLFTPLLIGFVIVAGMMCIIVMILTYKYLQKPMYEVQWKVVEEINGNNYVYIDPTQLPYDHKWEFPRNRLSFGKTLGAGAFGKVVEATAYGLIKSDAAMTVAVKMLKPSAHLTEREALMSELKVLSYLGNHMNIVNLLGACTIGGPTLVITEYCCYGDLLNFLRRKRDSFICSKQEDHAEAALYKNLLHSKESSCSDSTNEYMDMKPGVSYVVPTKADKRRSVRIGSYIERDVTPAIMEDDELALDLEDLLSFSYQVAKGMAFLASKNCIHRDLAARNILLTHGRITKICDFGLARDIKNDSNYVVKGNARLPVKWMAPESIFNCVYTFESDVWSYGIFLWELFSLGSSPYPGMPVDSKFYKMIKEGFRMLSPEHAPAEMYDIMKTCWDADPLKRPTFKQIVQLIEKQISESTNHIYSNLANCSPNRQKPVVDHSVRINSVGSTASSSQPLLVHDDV
Chain of Cyclin-dependent kinase 6 (Q00534 whole entry): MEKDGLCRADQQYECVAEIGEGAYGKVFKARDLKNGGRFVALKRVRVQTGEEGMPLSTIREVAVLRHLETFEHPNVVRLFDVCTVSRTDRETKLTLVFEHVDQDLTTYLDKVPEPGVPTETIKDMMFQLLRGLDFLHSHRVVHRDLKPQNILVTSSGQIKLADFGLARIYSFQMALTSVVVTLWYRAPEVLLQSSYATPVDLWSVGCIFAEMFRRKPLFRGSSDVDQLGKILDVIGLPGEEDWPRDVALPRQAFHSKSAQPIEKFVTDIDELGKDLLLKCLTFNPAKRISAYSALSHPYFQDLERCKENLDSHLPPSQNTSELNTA

In the case of `Cc1nc2c(c(Nc3c[nH]nc3C(=O)Nc3ccc(N4CCNCC4)cc3)n1)CCC2`, the inhibition [1] is reported as “Dose-dependent effect”, the Activity (MV4-11 [2]) is reported as 60.4% and the IC50 (K562) is reported as 11600 nM. The Kd [3] was 13.1 nM, the Drug uptake [4] was 28.7% and the IC50 [5] was 12.8 nM. The IC50 [6] was 9.15 nM, the IC50 [7] was 8.74 nM and the half-life [8] was 2.45 h. The “inhibition (INH)” value [9] was “Not Active”, the Activity (MV4-11 [10]) was 29% and the inhibition [11] was “Dose-dependent effect”. The IC50 [12] was 94.6 nM, the Activity [13] was 91.2% and the Activity (MV4-11 [14]) was “Dose-dependent effect”. For the same molecule, the Activity (MV4-11 [15]) was 62.2%, the IC50 [16] was 23 nM and the IC50 (HL-60) was 26700 nM. For the same molecule, the IC50 [17] was 1.79 nM, the Activity (MV4-11 [18]) was 1.92% and the IC50 [19] was 15.3 nM. It also gave an inhibition [20] greater than 50%, an IC50 [21] of 0.19 to 0.21 nM and an Activity (MV4-11 [22]) of 9.77%. For the same molecule, the inhibition [23] was greater than 50%, the Activity (MV4-11 [24]) was 23% and the IC50 (MV4-11 [25]) was 16 nM. The IC50 [26] was 220 nM, the microsomal CLint [27] was 9.4 µL/min/mg and the Ratio IC50 (Homo sapiens) was 120.
